Results as given in patent publication US20240092758A1, “IMIDAZOLO INDAZOLE COMPOUNDS AS JAK INHIBITORS” (Theravance Biopharma R&D IP, LLC, priority 2021, published 2024).

Key:
JAK1 = JAK1 (Homo sapiens (Human), UniProt P23458); test: Biochemical JAK kinase assay (LanthaScreen), JAK1; conditions: read-out: JAK1 pKi (converted)
Outline: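 LanthaScreen format: phospho-STAT1 (pTyr701) detected with 2 nM Tb antibody after 10 mM EDTA quench. Kinase step used Km-level ATP and 200 nM STAT1 peptide, 1 h at ambient after 1 h pre-incubation. Inhibition fitted to IC50, reported as pKi.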

[1] = test system: IL-13 induced pSTAT6 in lung tissue; test: Murine model of IL-13 induced pSTAT6 induction in lung tissue; format: in vivo, mouse; conditions: balb/c mice, test compound 0.5 mg/mL, 50 μL by oral aspiration, IL-13 challenge eight hours later, lungs collected one hour after
Experimental: IL-13 binds to cell surface receptors activating members of the Janus family of kinases (JAK) which then phosphorylate STAT6 and subsequently activate further transcription pathways. In the described model, a dose of IL-13 was delivered locally into the lungs of mice to induce the phosphorylation of STAT6 (pSTAT6) which is then measured as the endpoint.
Adult balb/c mice from Harlan were used in the assay. On the day of study, animals were lightly anesthetized with isoflurane and administered either vehicle or test compound (0.5 mg/mL, […] total volume over several breaths) via oral aspiration.
Animals were placed in lateral recumbency post dose and monitored for full recovery from anesthesia before being returned to their home cage. Eight hours later, animals were once again briefly anesthetized and challenged with either vehicle or IL-13 (0.03 μg total dose delivered, 50 μL total volume) via oral aspiration before being monitored for recovery from anesthesia and returned to their home cage. One hour after vehicle or IL-13 administration, lungs were collected for both pSTAT6 detection using an AlphaLISA Immunoassay (PerkinElmer) and analyzed for total drug concentration.
Selected compounds of the present disclosure were tested in the assay. Activity in the model is evidenced by a decrease in the level of pSTAT6 present in the lungs of treated animals at 9 hours compared to the vehicle treated, IL-13 challenged control animals. The difference between the control animals which were vehicle-treated, IL-13 challenged and the control animals which were vehicle-treated, vehicle challenged dictated the 0% and 100% inhibitory effect, respectively, in any given experiment.

Sequence of JAK1 (P23458 whole entry): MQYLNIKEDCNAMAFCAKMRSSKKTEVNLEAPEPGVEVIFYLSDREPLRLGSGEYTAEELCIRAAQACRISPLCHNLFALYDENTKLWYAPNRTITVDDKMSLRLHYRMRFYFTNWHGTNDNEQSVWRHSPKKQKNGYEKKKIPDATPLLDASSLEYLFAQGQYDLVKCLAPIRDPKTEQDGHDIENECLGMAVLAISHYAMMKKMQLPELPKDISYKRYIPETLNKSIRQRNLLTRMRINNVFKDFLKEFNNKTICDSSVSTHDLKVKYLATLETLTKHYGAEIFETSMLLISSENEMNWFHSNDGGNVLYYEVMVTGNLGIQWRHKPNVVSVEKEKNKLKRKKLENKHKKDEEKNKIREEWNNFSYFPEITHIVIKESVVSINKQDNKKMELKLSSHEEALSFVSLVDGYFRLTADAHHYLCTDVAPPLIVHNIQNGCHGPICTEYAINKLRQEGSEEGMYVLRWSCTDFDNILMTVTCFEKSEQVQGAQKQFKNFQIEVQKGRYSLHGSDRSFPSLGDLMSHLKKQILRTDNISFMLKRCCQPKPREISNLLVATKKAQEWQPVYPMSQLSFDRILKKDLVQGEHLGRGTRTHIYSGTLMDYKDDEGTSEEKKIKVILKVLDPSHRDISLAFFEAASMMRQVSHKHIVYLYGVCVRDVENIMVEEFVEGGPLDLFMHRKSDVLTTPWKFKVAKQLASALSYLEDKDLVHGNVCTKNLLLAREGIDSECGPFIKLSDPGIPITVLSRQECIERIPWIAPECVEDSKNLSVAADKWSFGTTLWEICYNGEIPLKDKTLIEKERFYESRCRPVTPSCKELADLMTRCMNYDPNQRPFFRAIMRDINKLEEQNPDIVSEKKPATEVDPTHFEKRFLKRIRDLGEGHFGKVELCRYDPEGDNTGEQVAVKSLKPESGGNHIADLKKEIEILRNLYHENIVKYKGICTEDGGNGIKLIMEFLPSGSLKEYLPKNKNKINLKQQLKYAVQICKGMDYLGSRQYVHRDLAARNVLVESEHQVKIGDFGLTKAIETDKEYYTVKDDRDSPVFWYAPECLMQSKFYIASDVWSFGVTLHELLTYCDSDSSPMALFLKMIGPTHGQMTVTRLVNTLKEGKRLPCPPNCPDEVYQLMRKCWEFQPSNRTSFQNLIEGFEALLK

| SMILES | Ki (JAK1) [nM] | % pSTAT6 inhibition at 8 hours [1] |
| --- | --- | --- |
| CCc1cc(O)ccc1-c1ccc2c(-c3nc(C4=CCNC4)c[nH]3)n[nH]c2c1F [Compound 1, 4-(3-(4-(2,5-dihydro-1H-pyrrol-3-yl)-1H-imidazol-2-yl)-7-fluoro-1H-indazol-6-yl)-3-ethylphenol] | 0.1 to 1 | A (A represents between 80% and 100% inhibition) |
| CCc1cc(O)ccc1-c1ccc2c(-c3nc(C4=CCNCC4)c[nH]3)n[nH]c2c1F [Compound 2, 3-ethyl-4-(7-fluoro-3-(4-(1,2,3,6-tetrahydropyridin-4-yl)-1H-imidazol-2-yl)-1H-indazol-6-yl)phenol] | 0.1 to 1 | A (A represents between 80% and 100% inhibition) |
| CCc1cc(O)ccc1-c1ccc2c(-c3nc(C4=CCNCC4)c[nH]3)n[nH]c2c1 [Compound 3, 3-ethyl-4-(3-(4-(1,2,3,6-tetrahydropyridin-4-yl)-1H-imidazol-2-yl)-1H-indazol-6-yl)phenol] | 0.1 to 1 | A (A represents between 80% and 100% inhibition) |
